Data set [1] has as its system Saccharomyces cerevisiae. It is filed as cell-based. The procedure:
For this example, 10 mL of apple juice, grape juice or multifruit juice was inoculated with a strain of Saccharomyces cerevisiae at 60,000 cells per mL, that is a deposit of 17 μL of inoculum per 10 ml tube for Ci at T0=[…].
These inoculated juices were incubated statically at 20° C., under subdued light, after having been pre-treated as follows: • 1. Untreated (Negative control) • 2. […] Ethanol 2.37% • 4. Ethanol 4.74% • 5. 100 ppm Chitosan • 6. 9 ppm Amphidinol 18 (AM18) • 7. 18 ppm Amphidinol 18 (AM18) • 8. 36 ppm Amphidinol 18 (AM18)
The amphidinol concentration is obtained using the product according to the invention obtained from Example 1. The amount of product according to the invention is adjusted to obtain the desired amphidinol concentrations.
The biomass of Saccharomyces populations was measured by optical density reading at 600 nm.

For data set [2], the system named is Saccharomyces cerevisiae. As to the kind of experiment: Minimum inhibitory concentration of peak 0 purified fraction, OD550 (Example 7). It is filed as cell-based. Conditions: 40 and 20 ppm of AM18 (tested 40 to 5 ppm); 2.5·10^4 CFU/mL. The procedure:
The minimum inhibitory concentration (MIC) of peak 0 described in FIG. 5D was determined for Saccharomyces cerevisiae according to the protocol described in Example 2 and FIG. 1B.
OD550 nm at 0, 3 and 6 days (T0, T3 and T6) was measured after incubation at 28° C. of yeasts at 2.5·10^4 CFU/mL in the presence of YPD medium alone (negative control), methanol (MEtOH) or in the presence of peak 0 at a dilution of 1:32 to 1:256 corresponding to concentrations of 40 to 5 ppm of amphidinol 18. The product according to the invention at 0.25 g/L was also tested under the same conditions. Two replicas (rep1 and rep2) were produced.

In data set [3] the test system is three strains of Brettanomyces bruxellensis. As to the kind of experiment: Growth of three Brettanomyces bruxellensis strains with product or inactivated product, optical density at 550 nm (Example 4). It is filed as cell-based. As to conditions: conclusion from degradation and growth tests of Example 4. As to the method: Two replicas were made for each condition.
Yeast growth is measured by reading the optical density at 550 nanometers.

Data set [4] can be described thus: Degradability of amphidinol 18 in light at room temperature, HPLC (Example 4). It is filed as physicochemical. Conditions: product at one gram per liter in 70% ethanol. The text has this:
Regularly, the concentration of amphidinol 18 in the product according to the invention has been measured by high-performance liquid chromatography.

Data set [5] can be described thus: Degradation kinetics of amphidinol 18 in wine, HPLC (Example 10). It is filed as physicochemical. Conditions: product doses containing 60 ppm to 480 ppm amphidinol 18; up to day 44. The procedure: Different doses of the product according to the invention, containing from 60 ppm to 480 ppm of amphidinol 18, were inoculated in the wine. The amount of amphidinol 18 was determined by HPLC assay over time, up to day 44 (T44). The percentage of amphidinol 18 with respect to the initial dose was assessed over time.

Data set [6] deals with Acetobacter aceti. As to the kind of experiment: Minimum inhibitory concentration of peak 0 purified fraction, OD550 (Example 8). In kind it is cell-based. Conditions: 40, 20 and 10 pp: of AM18 (tested 40 to 5 ppm); MRS medium, 10^5 CFU/mL. As to the method:
The minimum inhibitory concentration (MIC) of peak 0 described in FIG. 5D was determined for Acetobacter aceti according to the protocol described in Example 2 and FIG. 1B.
OD550 nm at 0, 3 and 6 days (T0, T3 and T6) was measured after incubation at 28° C. of yeasts at 10^5 CFU/mL in the presence of MRS medium alone (negative control), methanol (MEtOH) or in the presence of peak 0 at a dilution of 1:32 to 1:256 corresponding to concentrations of 40 to 5 ppm of amphidinol 18. The product according to the invention at 0.25 g/L was also tested under the same conditions. Two replicas (rep1 and rep2) were carried out.

In data set [7] the test system is Brettanomyces bruxellensis NL6300. As to the kind of experiment: Minimum inhibitory concentration of peak 0 purified fraction, OD550 (Example 6). It is filed as cell-based. Conditions: all concentrations (40 to 5 ppm) except the 5 ppm concentration of AM18. The procedure: The minimum inhibitory concentration of peak 0 (purified fraction) was determined for two strains of Brettanomyces bruxellensis (NL6293 and NL6300) according to the protocol described in Example 2 and FIG. 1B.
OD550 nm at T=0 days, T=3 days and T=6 days was measured after incubation of yeasts at 28° C. in the presence of YPD medium alone (negative control), methanol or in the presence of peak 0 at dilutions ranging from 1:32 to 1:256 corresponding to concentrations of 40 to 5 ppm of amphidinol 18. The product according to the invention at 0.25 g/L was also tested (positive control). Two replicas were produced.

Read-outs that look alike come from different tables or passages of the source.

Regarding `CCO` [Ethanol, reference compound], the yeast population growth result in data set [1] is listed as “no yeast population growth”.

Turning to `C=C/C=C/CC/C=C/C=C/C=C/CC/C=C/[C@H](O)[C@H](O)[C@@H]1O[C@@H]([C@H](O)[C@H](O)C(=C)CC[C@@H](O)[C@H]2C[C@@H](O)[C@@H](O)[C@H]([C@@H](O)[C@H](O)/C=C(\C)CCC(O)CC(O)C(O)C(C)CC(O)C(O)CC(C)CCC(O)CC(=O)CC(O)CCCC(O)CCCCC(O)CO)O2)C[C@@H](O)[C@H]1O` (stereo partly drawn) [amphidinol 18], in data set [2], the “effectiveness against Saccharomyces cerevisiae” value is on record as “effective”. Further, the “effectiveness for controlling and/or limiting the growth of Brettanomyces bruxellensis” value in data set [3] is reported as “particularly effective”. In addition, the “amphidinol 18 concentration of the product” value in data set [4] (T=0 days) was 24 mg/L; in data set [4] (T=120 days) it was around 0 mg/L. For the same compound, in data set [5], the “degradation of amphidinol 18 in wine” value was “degrades steadily”. For the same compound, the “growth of Saccharomyces populations” value in data set [1] (3 types of fruit juice) is reported as “completely preventing the growth”. Further, the “Average D0, optical density at 600 nm” value in data set [1] (Apple juice, 9 ppm AM18) is listed as −0.1305; in data set [1] (Apple juice, 18 ppm AM18), 0.0835; in data set [1] (Apple juice, 36 ppm AM18), −0.012; in data set [1] (Grape juice, 9 ppm AM18), 0.0755; in data set [1] (Grape juice, 18 ppm AM18), 0.2065; in data set [1] (Grape juice, 36 ppm AM18), −0.1485. Besides, the “Average D0, optical density at 600 nm” value in data set [1] (Multifruit juice, 9 ppm AM18) was −0.006; in data set [1] (Multifruit juice, 18 ppm AM18), 0.002; in data set [1] (Multifruit juice, 36 ppm AM18), −0.009. Further, the “Average D1, optical density at 600 nm” value is reported as −0.1655 in data set [1] (Apple juice, 9 ppm AM18); 0.0055 in data set [1] (Apple juice, 18 ppm AM18); −0.007 in data set [1] (Apple juice, 36 ppm AM18); 0.0375 in data set [1] (Grape juice, 9 ppm AM18); 0.175 in data set [1] (Grape juice, 18 ppm AM18); −0.174 in data set [1] (Grape juice, 36 ppm AM18). Also, the “Average D1, optical density at 600 nm” value in data set [1] (Multifruit juice, 9 ppm AM18) is −0.028; in data set [1] (Multifruit juice, 18 ppm AM18), −0.0365; in data set [1] (Multifruit juice, 36 ppm AM18) it was 0.034. The “Average D2, optical density at 600 nm” value in data set [1] (Apple juice, 9 ppm AM18) is 0.1385; in data set [1] (Apple juice, 18 ppm AM18), −0.0505; in data set [1] (Apple juice, 36 ppm AM18) it was −0.062; in data set [1] (Grape juice, 9 ppm AM18), 0.0315; in data set [1] (Grape juice, 18 ppm AM18), 0.154; in data set [1] (Grape juice, 36 ppm AM18) it was −0.2285. In addition, the “Average D2, optical density at 600 nm” value in data set [1] (Multifruit juice, 9 ppm AM18) is given as −0.0705; in data set [1] (Multifruit juice, 18 ppm AM18) it was −0.0155; in data set [1] (Multifruit juice, 36 ppm AM18) it was 0.008. Also, the “Average D3, optical density at 600 nm” value in data set [1] (Apple juice, 9 ppm AM18) is given as 0.6495; in data set [1] (Apple juice, 18 ppm AM18), −0.091; in data set [1] (Apple juice, 36 ppm AM18), 0.3515; in data set [1] (Grape juice, 9 ppm AM18), −0.084; in data set [1] (Grape juice, 18 ppm AM18), 0.0515; in data set [1] (Grape juice, 36 ppm AM18) it was −0.2465. Moreover, the “Average D3, optical density at 600 nm” value in data set [1] (Multifruit juice, 9 ppm AM18) was found to be 0.0995; in data set [1] (Multifruit juice, 18 ppm AM18), 0.033; in data set [1] (Multifruit juice, 36 ppm AM18), 0.018. Further, the “effectiveness against Acetobacter aceti” value in data set [6] is “effective”. Besides, the “effectiveness against strain NL6300” value in data set [7] is given as “effective”.

For the origin of these results see patent US20260258330A1, “USE OF AT LEAST ONE […] A BEVERAGE, IN […] ALCOHOLIC BEVERAGE, AS A […] […]” (priority 2023, published 2026).
